Laboratory results published in patent publication US10258072B2, “Environmentally friendly gelator using medium chain triglycerides and method of use” (Research Foundation of the City University of New York, priority 2014, dated 2019).

How the values were obtained:
[1] = Gelation test by vial inversion: gelation index and minimum gelation concentration (MGC); assay type: physicochemical; set-up: key to Gelation Index: I = Insoluble; PS = Partially Soluble
Protocol: (§1) Preparation and Characterization Molecular Gels. Gels were prepared by adding the solid glassy glycosides (10.0-50.0 mg gelator) to the desired solvent (1 mL). The mixture was then heated to disperse the gelator at five degrees below the boiling point of organic solvents, and at 125° C. for oils to produce a homogeneous sol. The sol was kept at this temperature for 10 minutes under constant agitation to fully disperse the gelator. The sol was then cooled to room temperature to allow for self-assembly and after a length of time (between 2-24 hours), the samples were inverted to confirm gel formation. The efficacy of gel formation was examined by determining the minimum gelation concentration (MGC) and gel-to-sol transition temperature (Tgel). Gel samples were diluted with solvent until after setting and vial inversion a gel, partial gel, or sol was formed. The gel transition temperature was determined by submersing a gel sample in an oil bath, and increasing the temperature until the gel flowed like a liquid, indicating the disassembly of the gelator structure. MGC was determined beginning from 5 wt. % samples (50 mg gelator in 1 mL solvent) or below the concentration of precipitation for gelators and diluting the samples until a sol is formed.

[2] = Gel-to-sol transition temperature (Tgel) in oil bath; assay type: physicochemical
Protocol: as §1, with “structure.” for “structure. MGC was determined beginning from 5 wt. % samples (50 mg gelator in 1 mL solvent) or below the concentration of precipitation for gelators and diluting the samples until a sol is formed.”

## CCCCCCCC(=O)OC[C@H]1O[C@@H](Oc2ccc(CCC(C)=O)cc2)[C@H](O)[C@@H](O)[C@@H]1O [RKG8, ((2R,3S,4S,5R,6S)-3,4,5-trihydroxy-6-(4-(3-oxobutyl)phenoxy)tetrahydro-2H-pyran-2-yl) methyl octanoate]
[1]; Coconut Oil (edible oil)
  Minimum Gelation Concentration: 0.27 wt. %
[1]; Grape seed Oil (edible oil)
  Minimum Gelation Concentration: 0.25 wt. %
[1]; Hazelnut Oil (edible oil)
  Minimum Gelation Concentration: 0.26 wt. %
[1]; Hexanes (organic solvent)
  Minimum Gelation Concentration: 2.1 wt. %
[1]; Jojoba Oil (edible oil)
  Minimum Gelation Concentration: 0.25 wt. %
[1]; Mineral Oil (organic solvent)
  Minimum Gelation Concentration: 1.4 wt. %
[1]; Red Palm Oil (edible oil)
  Minimum Gelation Concentration: 0.34 wt. %
[1]; Toluene (organic solvent)
  Minimum Gelation Concentration: 0.5 wt. %
[1]; Water (aqueous solvent)
  Gelation Index: I
[2]; 5 wt. % gel in Coconut Oil
  Tgel: 106-107 °C
[2]; 5 wt. % gel in Olive Oil
  Tgel: 108-110 °C
[2]; 5 wt. % gel in Toluene
  Tgel: 48-50 °C

## CCCCCCCCCCCCCCCCCC(=O)OCC1OC(Oc2ccc(CCC(C)=O)cc2)C(O)C(O)C1O (stereo not drawn) [RKG18, raspberry ketone glucoside stearate]
[1]; Coconut Oil (edible oil)
  Minimum Gelation Concentration: 0.28 wt. %
[1]; Grape seed Oil (edible oil)
  Minimum Gelation Concentration: 0.30 wt. %
[1]; Hazelnut Oil (edible oil)
  Minimum Gelation Concentration: 0.24 wt. %
[1]; Hexanes (organic solvent)
  Minimum Gelation Concentration: 0.24 wt. %
[1]; Jojoba Oil (edible oil)
  Minimum Gelation Concentration: 0.26 wt. %
[1]; Mineral Oil (organic solvent)
  Minimum Gelation Concentration: 0.24 wt. %
[1]; Red Palm Oil (edible oil)
  Minimum Gelation Concentration: 0.36 wt. %
[1]; Toluene (organic solvent)
  Minimum Gelation Concentration: 0.36 wt. %
[1]; Water (aqueous solvent)
  Gelation Index: I
[2]; 5 wt. % gel in Coconut Oil
  Tgel: 111-112 °C

## CCCCCCCCC=CCCCCCCCC(=O)OCC1OC(Oc2ccc(CCC(C)=O)cc2)C(O)C(O)C1O (stereo not drawn) [RKGO, raspberry ketone glucoside oleate]
[1]; Coconut Oil (edible oil)
  Minimum Gelation Concentration: 0.54 wt. %
[1]; Grape seed Oil (edible oil)
  Minimum Gelation Concentration: 0.66 wt. %
[1]; Hazelnut Oil (edible oil)
  Minimum Gelation Concentration: 0.56 wt. %
[1]; Jojoba Oil (edible oil)
  Minimum Gelation Concentration: 0.48 wt. %
[1]; Mineral Oil (organic solvent)
  Minimum Gelation Concentration: 0.80 wt. %
[1]; RKGO gels compared to saturated analogues
  MGC: greater than 0.5 wt. %
[1]; Red Palm Oil (edible oil)
  Minimum Gelation Concentration: 0.72 wt. %
[1]; Toluene (organic solvent)
  Minimum Gelation Concentration: 0.73 wt. %

## CC(=O)CCc1ccc(O[C@@H]2O[C@H](CO)[C@@H](O)[C@H](O)[C@H]2O)cc1 [Raspberry ketone glucoside, reference compound]
[1]; Coconut Oil (edible oil)
  Gelation Index: I
[1]; Grape seed Oil (edible oil)
  Gelation Index: I
[1]; Hazelnut Oil (edible oil)
  Gelation Index: I
[1]; Hexanes (organic solvent)
  Gelation Index: I
[1]; Jojoba Oil (edible oil)
  Gelation Index: I
[1]; Mineral Oil (organic solvent)
  Gelation Index: I
[1]; Red Palm Oil (edible oil)
  Gelation Index: I
[1]; Toluene (organic solvent)
  Gelation Index: PS
[1]; Water (aqueous solvent)
  Gelation Index: PS
